Laboratory results as given in patent US20130202530A1, “NOVEL RADIOTRACER” (IMPERIAL COLLEGE, priority 2010, published 2013).

Assays:
[1] = system: human colon carcinoma xenograft HCT116; assay: Imaging response to PD0325901 treatment by [18F]D4-FCH-PET; format: in vivo, mice
Description: Size-matched HCT116 tumor bearing mice were randomized to receive daily treatment by oral gavage of vehicle (0.5% hydroxypropyl methylcellulose+0.2% Tween 80) or 25 mg/kg (0.005 mL/g mouse) of the mitogenic extracellular kinase inhibitor, PD0325901, prepared in vehicle. [^18F]D4-FCH-PET scanning was done after 10 daily treatments with the last dose administered 1 h before scanning. […] The results are illustrated in FIGS. 18 and 19.
These studies were performed in a reproducible tumor model system in which treatment outcomes had been previously characterized, i.e., the human colon carcinoma xenograft HCT116 treated with PD0325901 daily for 10 days (Leyton, J., et al., “Noninvasive imaging of cell proliferation following mitogenic extracellular kinase inhibition by PD0325901”, Mol Cancer Ther 2008; 7(9):3112-21). […] All imaging variables decreased after 10 days of drug treatment (P=0.05, FIG. 18). […] To understand the biomarker changes, the intrinsic cellular effect of PD0325901 on D4-FCH-phosphocholine formation was examined by treating exponentially growing HCT116 cells in culture with PD0325901 for 24 h and measuring the 60-min uptake of [^18F]D4-FCH in vitro.

CHKA = CHKA expression in exponentially growing cells treated with PD0325901; format: cell-based
[2] = system: HCT116 human colon xenografts; details: mouse, in vivo
Description: Time course biodistribution was carried out for [^18F]fluoromethylcholine, [^18F]fluoromethyl-[1-^2H2]choline and [^18F]fluoromethyl-[1,2-^2H4]choline in nude mice bearing HCT116 human colon xenografts.
Human colon (HCT116) tumors were grown in male C3H-Hej mice (Harlan, Bicester, United Kingdom) as previously reported (Leyton, J., et al., Cancer Research 2005; 65(10):4202-10). Tumor dimensions were measured continuously using a caliper and tumor volumes were calculated by the equation: volume=(π/6)×a×b×c, where a, b, and c represent three orthogonal axes of the tumor. Mice were used when their tumors reached approximately 100 mm^3. […] The mice were sacrificed at pre-determined time points (2, 30 and 60 min) after radiotracer injection under terminal anesthesia to obtain blood, plasma, tumor, heart, lung, liver, kidney and muscle. Tissue radioactivity was determined on a gamma counter (Cobra II Auto-Gamma counter, Packard Biosciences Co, Pangbourne, UK) and decay corrected. Data were expressed as percent injected dose per gram of tissue.

[3] = system: human melanoma SKMEL-28 xenografts; details: mouse, in vivo
Description: Dynamic [^18F]FCH and [^18F]D4-FCH imaging scans were carried out on a dedicated small animal PET scanner, quad-HIDAC (Oxford Positron Systems). The features of this instrument have been described previously (Barthel, H., et al., Cancer Res 2003; 63(13):3791-8). For scanning the tail veins, vehicle- or drug-treated mice were cannulated after induction of anesthesia (isofluorane/O2/N2O). The animals were placed within a thermostatically controlled jig (calibrated to provide a rectal temperature of ˜37° C.) and positioned prone in the scanner. [^18F]FCH or [^18F]D4-FCH (2.96-3.7 MBq) was injected via the tail vein cannula and scanning commenced. Dynamic scans were acquired in list mode format over a 60 min period as reported previously (Leyton, J., et al., Cancer Research 2006; 66(15):7621-9). […] Dynamic data from these slices were averaged for each tissue (liver, kidney, muscle, urine, and tumor) and at each of the 19 time points to obtain time versus radioactivity curves. Corresponding whole body time versus radioactivity curves representing injected radioactivity were obtained by adding together radioactivity in all 200×160×160 reconstructed voxels. Tumor radioactivity was normalized to whole-body radioactivity and expressed as percent injected dose per voxel (% ID/vox). […] The area under the curve was calculated as the integral of % ID/vox from 0 to 60 min.

[4] = 20 min
Description: The effect of deuterium substitution on bond strength was initially tested by evaluation of the chemical oxidation pattern of [^18F]fluoromethylcholine and [^18F]Fluoromethyl-[1,2-^2H4]choline using potassium permanganate.

[5] = mouse, in vivo
Description: [^18F]FCH or [^18F](D4-FCH) (80-100 μCi) was injected via the tail vein into anesthetized non-tumor bearing C3H-Hej mice; isofluorane/O2/N2O anesthesia was used. Plasma samples obtained at 2, 15, 30 and 60 minutes after injection were snap frozen in liquid nitrogen and stored at −80° C. For analysis, samples were thawed and kept at 4° C. To approximately 0.2 mL of plasma was added ice-cold acetonitrile (1.5 mL). The mixture was then centrifuged (3 minutes, 15,493×g; 4° C.). The supernatant was evaporated to dryness using a rotary evaporator (Heidoloph Instruments GMBH & C0, Schwabach, Germany) at a bath temperature of 45° C. The residue was suspended in mobile phase (1.1 mL), clarified (0.2 μm filter) and analyzed by HPLC. […] All samples were analyzed on an Agilent 1100 series HPLC system equipped with a γ-RAM Model 3 radio-detector (IN/US Systems inc., FL, USA). The analysis was based on the method of Roivannen (Roivainen, A., et al., European Journal of Nuclear Medicine 2000; 27:25-32) using a Phenomenex Luna SCX column (10μ, 250×4.6 mm) and a mobile phase comprising of 0.25 M sodium dihydrogen phosphate (pH 4.8) and acetonitrile (90:10 v/v) delivered at a flow rate of 2 ml/min.

choline oxidase = target: T1, choline oxidase (Arthrobacter globiformis, UniProt Q7X2H8); assay: Enzymatic oxidation study using choline oxidase; details: 60 minute time point, room temperature
T1 sequence (Q7X2H8 1-546): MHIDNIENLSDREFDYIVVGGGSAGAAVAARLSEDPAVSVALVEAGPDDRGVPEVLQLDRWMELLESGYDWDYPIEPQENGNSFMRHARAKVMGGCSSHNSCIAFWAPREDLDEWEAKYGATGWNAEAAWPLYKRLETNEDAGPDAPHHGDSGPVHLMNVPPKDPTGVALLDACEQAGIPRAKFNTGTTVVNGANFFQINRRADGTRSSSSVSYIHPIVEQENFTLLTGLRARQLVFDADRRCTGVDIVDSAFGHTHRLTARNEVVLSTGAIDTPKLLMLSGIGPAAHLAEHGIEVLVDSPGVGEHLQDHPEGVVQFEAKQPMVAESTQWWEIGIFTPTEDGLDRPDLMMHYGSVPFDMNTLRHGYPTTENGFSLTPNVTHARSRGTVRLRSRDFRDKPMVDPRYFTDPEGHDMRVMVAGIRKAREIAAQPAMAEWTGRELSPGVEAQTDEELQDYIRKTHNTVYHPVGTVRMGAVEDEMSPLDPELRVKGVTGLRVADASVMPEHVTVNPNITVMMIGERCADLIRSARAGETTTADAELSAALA
Description: [^18F]fluoromethylcholine and [^18F]fluoromethyl-[1,2-^2H4]choline were evaluated in a choline oxidase model (Roivainen, A., et al., European Journal of Nuclear Medicine 2000; 27:25-32).
An aliquot of either [^18F]Fluoromethylcholine or [^18F]fluoromethyl-[1,2-^2H4]choline [^18F](100 μL, ˜3.7 MBq) was added to a vial containing water (1.9 mL) to give a stock solution. Sodium phosphate buffer (0.1 M, pH 7) (10 uL) containing choline oxidase (0.05 units/uL) was added to an aliquot of stock solution (190 uL) and the vial was then left to stand at room temperature, with occasional agitation. At selected time-points (5, 20, 40 and 60 minutes) the sample was diluted with HPLC mobile phase (buffer A, 1.1 mL), filtered (0.22 μm filter) and then ˜1 mL injected via a 1 mL sample loop onto the HPLC for analysis. Chromatographic separation was performed on a Waters C18 Bondapak (7.8×300 mm) column (Waters, Milford, Mass., USA) at 3 mL/min with a mobile phase of buffer A, which contained acetonitrile, ethanol, acetic acid, 1.0 mol/L ammonium acetate, water, and 0.1 mol/L sodium phosphate (800:68:2:3:127:10 [v/v]) and buffer B, which contained the same constituents but in different proportions (400:68:44:88:400:10 [v/v]). The gradient program comprised 100% buffer A for 6 minutes, 0-100% buffer B for 10 minutes, 100-0% B in 2 minutes then 0% B for 2 minutes.

Compound	[18F]D4-FCH radiotracer retention in treated tumors ([1]; 25 mg/kg daily for 10 days, versus vehicle)	imaging variables (% ID/vox60, % ID/vox60max, AUC) ([1]; after 10 days of drug treatment, [18F]D4-FCH-PET)	CHKA expression in vitro (CHKA)	tumor uptake (localization of radiotracer) [2]	% IDvox60max (average of the maximum pixel % ID/vox60 across 5 slices) [3]	proportion of the parent compound remaining [4]	percentage of parent compound in plasma [5]	parent radiotracer present (radio-HPLC distribution of choline species) (choline oxidase)
O=C(NOC[C@H](O)CO)c1ccc(F)c(F)c1Nc1ccc(I)cc1F [PD0325901]	marked reduction in radiotracer retention	decreased	reduction	–	–	–	–	–
[2H]C([2H])(O)C([2H])([2H])[N+](C)(C)C[18F] [[^18F]D4-FCH, [^18F]fluoromethyl-[1,2-^2H4]-choline]	–	–	–	pronounced increase in tumor uptake	significantly higher	greater proportion of the parent compound remaining	consistently higher	29±4%
C[N+](C)(C[18F])CCO [[^18F]FCH, [^18F]Fluoromethylcholine, reference compound]	–	–	–	–	–	–	–	11±8%
